How the values were obtained:
MDA-MB-231 cells = test: Flow cytometry binding to MDA-MB-231 cells; type: cell-based, human; settings: higher PD-L1 expression than MC38
Experimental: (§1) Fluorescence-based ELISA and cell-based tests were used to examine the binding specificity of PPL-C to PD-L1. To perform the ELISA, fluorescent plates were coated with 100 μL human PD-L1 (hPD-L1), mouse PD-L1 (mPD-L1), and BSA in PBS (pH 7.4) overnight at 4°C, respectively. Blocked the plates with 1% BSA (in PBST) for an hour at room temperature and rinsed twice with PBST. Then added peptides (20 μmol/L FITC-labeled PPL-C/Control peptide) and incubated for 1.5 hours at room temperature. With excitation at 488 nm and emission at 515 nm, the Cytation 3 instrument (BioTek) was used to measure the relative fluorescence intensity. Both attached and detached cells were used in the cell-based flow cytometry analysis. […] After that, cells were treated for 40 minutes at 4°C on an inversion shaker with PD-L1 antibody from Biolegend and 4 μmol/L FITC-labeled peptides (PPL-C/Control peptide). Each tube was washed twice with PBS following incubation and flow cytometry was carried out using a FACSort device. FlowJo software was used to evaluate the data that was acquired.

LLC cells = test: Flow cytometry binding to LLC cells; type: cell-based, mouse; settings: higher PD-L1 expression than MC38
Experimental: as §1

mouse PD-L1 (mPD-L1) = mouse PD-L1 (mPD-L1) (Mus musculus, UniProt Q9EP73); test: Fluorescence-based ELISA, binding specificity; settings: 20 μmol/L FITC-labeled peptide, 1.5 h room temperature, n = 3
Chain of mouse PD-L1 (mPD-L1) (Q9EP73 19-290): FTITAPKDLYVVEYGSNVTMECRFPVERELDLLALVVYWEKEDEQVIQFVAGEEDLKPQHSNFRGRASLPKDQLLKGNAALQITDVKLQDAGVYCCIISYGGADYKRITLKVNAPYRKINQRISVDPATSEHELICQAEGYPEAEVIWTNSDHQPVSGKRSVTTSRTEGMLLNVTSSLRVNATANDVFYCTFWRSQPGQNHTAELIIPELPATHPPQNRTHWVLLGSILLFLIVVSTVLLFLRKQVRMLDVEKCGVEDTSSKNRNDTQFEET
Experimental: as §1

human PD-L1 (hPD-L1) = human PD-L1 (hPD-L1) (Homo sapiens, UniProt Q9NZQ7); test: Fluorescence-based ELISA, binding specificity; settings: 20 μmol/L FITC-labeled peptide, 1.5 h room temperature, n = 3
Chain of human PD-L1 (hPD-L1) (Q9NZQ7 19-290): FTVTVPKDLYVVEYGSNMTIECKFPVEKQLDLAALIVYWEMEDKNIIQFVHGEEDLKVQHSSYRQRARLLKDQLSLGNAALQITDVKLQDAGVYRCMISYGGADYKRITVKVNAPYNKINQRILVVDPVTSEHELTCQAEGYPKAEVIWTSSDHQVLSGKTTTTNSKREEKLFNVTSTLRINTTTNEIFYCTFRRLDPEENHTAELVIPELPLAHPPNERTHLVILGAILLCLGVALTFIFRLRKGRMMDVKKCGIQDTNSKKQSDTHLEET
Experimental: as §1

[1] = tested on: serum cytokines of CT26-bearing mice; test: Cytokine ELISA of serum of treated CT26-bearing mice; type: in vivo, mouse; settings: 14 days of administration, versus untreated and control peptide groups
Experimental: After 14 days of continuous administration, 0.5-1.0 ml of peripheral blood was collected from the mice. Serum was isolated from peripheral blood using the posterior orbital venous plexus blood collection method. The serum was obtained by centrifuging at 2000 RMP for 10 minutes. Mouse total lymphocytes were isolated from the spleen using Ficoll density gradient fractionation (Shanghai Biotech Bioengineering). In 200 μL of RIPM medium with 10% FBS, 1×10^6 tumor cells were seeded in each well with a CT26: lymphocyte ratio of 1:2 and incubated for 48 and 72 hours. Cell growth medium was harvested by centrifuging at 2000 RPM for 10 min. For the analysis of cytokine production, lymphocyte growth media served as a positive control and cell-free growth medium served as a negative control. Following the manufacturer’s instructions, the levels of IL-2, IL-4, IL-6, IL-10, TNF-α and IFN-γ in the blood and cell growth media were assessed using LEGEND MAX™ ELISA kit (BioLegend Inc, USA). Three duplicates of each experiment were carried out.

CT26 tumor = type: in vivo, mouse
Experimental: The investigators conducting the animal studies were not blinded. […] The mice were then randomized into different treatment groups.
The mice’s tumor volumes were measured by calipers after they were randomly allocated to various treatment groups. Every day tumor volumes were measured along axes (a and b) that are orthogonal to one another, and they were estimated by the equation tumor volume = π/6 × a × b^2. After the tumor was established (approximately 7 days), each group was subcutaneously injected with PPL-C (6 or 11 mg/kg), control peptide (11 mg/kg), endotoxin-free PD-L1 antibody (200 μg), or control antibody, following specific treatment procedures outlined in the flow chart. The Kaplan-Meier technique was used to determine survival differences for each group, and the log-rank test using the survival R package version 2.38-3 was applied to get the overall p-value.

Swiss mice = type: in vivo, mouse; settings: twice intraperitoneal 180 mg/kg (30 times effective amount), observed 14 days, data not shown
PD-1/PD-L1 binding = biological target: T1, PD-1/PD-L1 binding (Homo sapiens, UniProt Q9NZQ7); test: ELISA competition of peptides with PD-1 for binding to PD-L1; settings: n = 3, effect increases with peptide concentration
T1 construct: PD-1: 10377-H08H
T1 sequence (Q9NZQ7 19-239 limits assumed): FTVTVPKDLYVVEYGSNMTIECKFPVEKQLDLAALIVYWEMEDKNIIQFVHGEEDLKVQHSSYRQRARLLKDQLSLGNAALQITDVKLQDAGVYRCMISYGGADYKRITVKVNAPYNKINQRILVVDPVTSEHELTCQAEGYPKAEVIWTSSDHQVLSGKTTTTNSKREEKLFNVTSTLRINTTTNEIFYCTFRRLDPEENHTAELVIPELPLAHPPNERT
Experimental: After seven phages were grown and purified, the solution was diluted 10 times to produce eight gradients. To ascertain the phage’s affinity for PD-L1, an ELISA test was run. Briefly, 96-well plates were filled with 150 µL of PD-L1 ([…]) in assay diluent (BioLegend, San Diego, CA), and incubated at 4°C overnight. 5% BSA in water was used to block the wells for two hours at 4°C. Following washing, 100 µL of phage diluent was added to each well, and they were shaken for two hours at room temperature. The wells were then treated with HRP-conjugated anti-M13 antibody at dose of 1:5000. With 100 µL of HRP substrate, the reaction was observed, and the OD410 was determined. By deducting the OD value of each phage binding to BSA-coated wells from the OD value of that phage binding to PD-L1, the specific binding of each phage to PD-L1 was computed. Three duplicate runs of this assay were made. GraphPad Prism 6 software was used to compute each phage binding affinity by nonlinear regression and convert it to a Scatchard plot. ELISA was used to evaluate the candidate peptides capacity to inhibit PD1/PD-L1 binding. The subsequent stages were the same as those previously outlined. Following incubation, OD410 was determined by goat anti-rabbit monoclonal antibody that had been HRP-labeled and rabbit anti-human PD-L1 protein monoclonal antibody.
To assess the effect of PPL-C peptide interference, PD-L1 binding to PD-1 was investigated using ELISA and cell-based analysis. For the ELISA, 100 μL of mouse PD-L1 in PBS was coated in each well of a 96-well plate and incubated the plate at 4°C overnight. On the second day, 1% BSA in PBST was used to block the plate. Each well was then filled with 200 nmol/L biotinylated PD-1 and FITC-labeled PPL-C peptides (at final concentrations of 40, 20, 10, 5, or 2.5 μmol/L) before 1.5 hours incubating at room temperature. After two PBST washes, the relative FITC fluorescence intensity was measured using a Cytation 3 instrument. […] After two PBST washes, the Cytation 3 device was used to detect PE fluorescence intensity. […] Samples were analyzed by flow cytometry.

## CC(C)[C@H](NC(=O)[C@H](CO)NC(=O)[C@@H](NC(=O)[C@@H](N)CO)C(C)C)C(=O)N[C@@H](CO)C(=O)N[C@@H](Cc1c[nH]cn1)C(=O)N[C@@H](Cc1ccccc1)C(=O)N[C@@H](CCC(N)=O)C(=O)N[C@@H](CCCCN)C(=O)N[C@H](C(=O)N[C@@H](Cc1c[nH]c2ccccc12)C(=O)N[C@H](C(=O)N[C@H](C(=O)NCC(=O)NCC(=O)NCC(=O)N[C@@H](CO)C(=O)N[C@@H](CCCCN)C(N)=O)C(C)C)C(C)C)C(C)C [PPL-C]
MDA-MB-231 cells
  Affinity to MDA-MB-231 cells: higher affinity
LLC cells
  Affinity to LLC cells: higher affinity
Mouse PD-L1 (mPD-L1)
  Binding to mPD-L1: higher specificity
Human PD-L1 (hPD-L1)
  Binding to hPD-L1: cross-reactivity
[1]
  IFN-γ, IL-2, IL-4 and IL-6 secretion in serum: significantly promoted
  IL-10 secretion in serum: lower IL-10 secretion
CT26 tumor; 11 mg/kg s.c. around the tumor, dosing-schedule study, saline as negative control
  Increase in survival time of CT26 tumor-bearing mice: approximately 50%
CT26 tumor; reduced dose, s.c. around the tumor every day or every other day
  Increase in survival time compared to the control peptide: approximately 50%
CT26 tumor; reduced dose, s.c. around the tumor every day or every other day, n = 6, P<0.001
  Survival time of CT26 tumor-bearing mice: 81 days
Swiss mice
  Acute toxicity: no acute toxicity
PD-1/PD-L1 binding
  Competition with PD-1 to bind PD-L1 (blocking of PD-L1/PD-1): significant blocking effect
